# Test results published in US20220133717A1, “RABEXIMOD IN THE TREATMENT OF RHEUMATOID ARTHRITIS” (CYXONE AB, priority 2020, published 2022).
# Like-named read-outs stand apart in the source and are kept apart here.
# Assay: Phase II clinical trial: pharmacokinetics of plasma Rabeximod (PK subgroup)
# Format: in vivo, human
# Settings: for half-life / Tmax / AUC(0-t) / AUC / Cmax: human, plasma, oral
# Source text: A total of 9 visits occurred over the course of the study (screening, randomisation [Day 0, baseline]. Day 1, and Weeks 2, 4, 6, 8, 12 and 16). The Day 1 visit was included for a subgroup of 36 patients (PK/PD subgroup) who were selected at specified study centres to also participate in the PK/PD aspect of the study. Individual patient duration in the study was approximately 126 days (a 14 day screening period, an 84 day treatment period [12 weeks], and a 28 day [4 week] follow-up period).
# In addition to standard efficacy and safety assessments, it was planned that 40 patients in selected study centres would have blood draws at the beginning of the study (Day 1) and at the end of the study (Week 12) to assess the PK of Rabeximod. The actual number of patients who participated in the PK aspect of the study was 36. The ACR20, ACR50 and ACR70 are assessments of RA improvement. The mHAQ is a validated instrument used to assess patient satisfaction in activity of daily living. It was planned to use the Original DAS as the outcome measure, but this was replaced with DAS28 because it is used more frequently in therapeutic studies have been used in many RA studies.
# […] The study drug was to be taken at approximately the same time every morning, starting from Day 1. For the PK/PD subgroup, on the day when the PK/PD sampling was scheduled, study drug was to be taken after the first blood sampling. The study design of the treatment phase was double-blind. All study drug, including placebo, were identical in size, shape, colour and taste, thus allowing double-blind conditions to be maintained. All study personnel and patients remained blinded to the drug treatment assignments. Patients self-administered all doses of study drug end were instructed to return all residual, unused and empty packaging to the clinic at scheduled visits. If dosing compliance was not maintained at between 80% and 120% then the patient was to be withdrawn from the study. Patients in the PK/PD subgroup were to take study drug at the clinic on Day 1 and at Week 12. Compliance was monitored through drug accountability. The Investigator, or designee, maintained an inventory record of study drug received, dispensed, administered and returned to assure the Sponsor that study drug was not dispensed to any person who was not a patient under the terms and conditions set forth in the protocol. Clinically significant protocol deviations were identified based on criteria determined by the project leader to be clinically relevant. Deviations were reported on the CRFs. Additionally, upon completion of the study, certain deviations (e.g., visit window deviations) were identified through the use of SAS® programming.
# The PK assessment of Rabeximod was performed in a subgroup of 36 patients during the study.
# Concentration-time profiles for plasma Rabeximod following single (Day 1) and repeated administration (Week 12) of Rabeximod were determined.
smiles,measurement,setting,value
"Cc1cc2nc3c4cc(Cl)ccc4n(CC(=O)NCCN(C)C)c3nc2cc1C [Rabeximod, 9-Chloro-2,3-dimethyl-6-(N,N-dimethylaminoethylamino-2-oxoethyl)-6H-indolo-[2,3-b]quinoxaline]",impact of methotrexate on the kinetics of Rabeximod,co-administered stable dose of methotrexate,does not appear to have an impact
same,"increase of geometric mean AUC0-τ, AUC0-t and Cmax with dose","dose range 6.25 to 37.5 mg, with stable dose of methotrexate",approximately dose-proportional
same,half-life,"6.25 mg, Week 12, 6.25 mg, read-out: geometric mean apparent terminal half-life (t1/2) (converted)",81.5 h
same,half-life,"15 mg, Week 12, 15 mg, read-out: geometric mean apparent terminal half-life (t1/2) (converted)",77.1 h
same,half-life,"37.5 mg, Week 12, 37.5 mg, read-out: geometric mean apparent terminal half-life (t1/2) (converted)",111 h
same,Tmax,"37.5 mg, single administration at 6.25, 15 and 37.5 mg, across all dose levels, with methotrexate, read-out: Tmax (median estimates)",5 to 8 h
same,Tmax,"repeated administration, Week 12, read-out: Tmax (median estimates)",2 to 4 h
same,AUC(0-t),"po, 6.25 mg, Week 12, 6.25 mg once daily, RA patients, with methotrexate, read-out: AUC0-t, Median",2810 ng·h/mL
same,half-life,"po, 6.25 mg, Week 12, 6.25 mg once daily, RA patients, with methotrexate, read-out: T1/2 (apparent terminal half-life), Geometric mean (converted)",81.5 h
same,half-life,"po, 6.25 mg, Week 12, 6.25 mg once daily, RA patients, with methotrexate, read-out: T1/2 (apparent terminal half-life), Median (converted)",86.6 h
same,AUC,"po, 6.35 mg, Day 1 (equivalent to AUC0-t), 6.35 mg, RA patients, with methotrexate, read-out: AUC0-τ, Geometric mean",112 ng·h/mL
same,AUC,"po, 6.35 mg, Day 1 (equivalent to AUC0-t), 6.35 mg, RA patients, with methotrexate, read-out: AUC0-τ, Median",107 ng·h/mL
same,Cmax,"po, 6.35 mg, Day 1, 6.35 mg, RA patients, with methotrexate, read-out: Cmax, Geometric mean",7.92 ng/mL
same,Cmax,"po, 6.35 mg, Day 1, 6.35 mg, RA patients, with methotrexate, read-out: Cmax, Median",7.05 ng/mL
same,Tmax,"po, 6.35 mg, Day 1, 6.35 mg, RA patients, with methotrexate, read-out: Tmax, Median",8.03 h
same,AUC(0-t),"po, 6.35 mg, Week 12, 6.35 mg once daily, RA patients, with methotrexate, read-out: AUC0-t, Geometric mean",2530 ng·h/mL
same,AUC,"po, 6.35 mg, Week 12, 6.35 mg once daily, RA patients, with methotrexate, read-out: AUC0-τ, Geometric mean",587 ng·h/mL
same,AUC,"po, 6.35 mg, Week 12, 6.35 mg once daily, RA patients, with methotrexate, read-out: AUC0-τ, Median",710 ng·h/mL
same,Cmax,"po, 6.35 mg, Week 12, 6.35 mg once daily, RA patients, with methotrexate, read-out: Cmax, Geometric mean",31 ng/mL
same,Cmax,"po, 6.35 mg, Week 12, 6.35 mg once daily, RA patients, with methotrexate, read-out: Cmax, Median",37.5 ng/mL
same,Tmax,"po, 6.35 mg, Week 12, 6.35 mg once daily, RA patients, with methotrexate, read-out: Tmax, Median",2.17 h
same,AUC,"po, 15 mg, Day 1 (equivalent to AUC0-t), 15 mg, RA patients, with methotrexate, read-out: AUC0-τ, Geometric mean",282 ng·h/mL
same,AUC,"po, 15 mg, Day 1 (equivalent to AUC0-t), 15 mg, RA patients, with methotrexate, read-out: AUC0-τ, Median",254 ng·h/mL
same,Cmax,"po, 15 mg, Day 1, 15 mg, RA patients, with methotrexate, read-out: Cmax, Geometric mean",18.3 ng/mL
same,Cmax,"po, 15 mg, Day 1, 15 mg, RA patients, with methotrexate, read-out: Cmax, Median",16 ng/mL
same,Tmax,"po, 15 mg, Day 1, 15 mg, RA patients, with methotrexate, read-out: Tmax, Median",6.04 h
same,AUC(0-t),"po, 15 mg, Week 12, 15 mg once daily, RA patients, with methotrexate, read-out: AUC0-t, Geometric mean",4970 ng·h/mL
same,AUC(0-t),"po, 15 mg, Week 12, 15 mg once daily, RA patients, with methotrexate, read-out: AUC0-t, Median",5590 ng·h/mL
same,AUC,"po, 15 mg, Week 12, 15 mg once daily, RA patients, with methotrexate, read-out: AUC0-τ, Geometric mean",1530 ng·h/mL
same,AUC,"po, 15 mg, Week 12, 15 mg once daily, RA patients, with methotrexate, read-out: AUC0-τ, Median",1480 ng·h/mL
same,Cmax,"po, 15 mg, Week 12, 15 mg once daily, RA patients, with methotrexate, read-out: Cmax, Geometric mean",79.7 ng/mL
same,Cmax,"po, 15 mg, Week 12, 15 mg once daily, RA patients, with methotrexate, read-out: Cmax, Median",91.6 ng/mL
same,half-life,"po, 15 mg, Week 12, 15 mg once daily, RA patients, with methotrexate, read-out: T1/2 (apparent terminal half-life), Geometric mean (converted)",77.1 h
same,half-life,"po, 15 mg, Week 12, 15 mg once daily, RA patients, with methotrexate, read-out: T1/2 (apparent terminal half-life), Median (converted)",77.6 h
same,Tmax,"po, 15 mg, Week 12, 15 mg once daily, RA patients, with methotrexate, read-out: Tmax, Median",4 h
same,AUC,"po, 37.5 mg, Day 1 (equivalent to AUC0-t), 37.5 mg, RA patients, with methotrexate, read-out: AUC0-τ, Geometric mean",689 ng·h/mL
same,AUC,"po, 37.5 mg, Day 1 (equivalent to AUC0-t), 37.5 mg, RA patients, with methotrexate, read-out: AUC0-τ, Median",697 ng·h/mL
same,Cmax,"po, 37.5 mg, Day 1, 37.5 mg, RA patients, with methotrexate, read-out: Cmax, Geometric mean",41.7 ng/mL
same,Cmax,"po, 37.5 mg, Day 1, 37.5 mg, RA patients, with methotrexate, read-out: Cmax, Median",41.8 ng/mL
same,Tmax,"po, 37.5 mg, Day 1, 37.5 mg, RA patients, with methotrexate, read-out: Tmax, Median",5.03 h
same,AUC(0-t),"po, 37.5 mg, Week 12, 37.5 mg once daily, RA patients, with methotrexate, read-out: AUC0-t, Geometric mean",15900 ng·h/mL
same,AUC(0-t),"po, 37.5 mg, Week 12, 37.5 mg once daily, RA patients, with methotrexate, read-out: AUC0-t, Median",17500 ng·h/mL
same,AUC,"po, 37.5 mg, Week 12, 37.5 mg once daily, RA patients, with methotrexate, read-out: AUC0-τ, Geometric mean",4040 ng·h/mL
same,AUC,"po, 37.5 mg, Week 12, 37.5 mg once daily, RA patients, with methotrexate, read-out: AUC0-τ, Median",4540 ng·h/mL
same,Cmax,"po, 37.5 mg, Week 12, 37.5 mg once daily, RA patients, with methotrexate, read-out: Cmax, Geometric mean",218 ng/mL
same,Cmax,"po, 37.5 mg, Week 12, 37.5 mg once daily, RA patients, with methotrexate, read-out: Cmax, Median",238 ng/mL
same,half-life,"po, 37.5 mg, Week 12, 37.5 mg once daily, RA patients, with methotrexate, read-out: T1/2 (apparent terminal half-life), Geometric mean (converted)",111 h
same,half-life,"po, 37.5 mg, Week 12, 37.5 mg once daily, RA patients, with methotrexate, read-out: T1/2 (apparent terminal half-life), Median (converted)",107 h
same,Tmax,"po, 37.5 mg, Week 12, 37.5 mg once daily, RA patients, with methotrexate, read-out: Tmax, Median",3.99 h
